Source: ChEMBL document CHEMBL3885861, “Open TG-GATES”
Where a name gives a salt, the structure may show the parent alone.

Species on record: Rattus norvegicus
Test: Open TG-GATES - Regimen: Single
Type: toxicity, organism-based, Sprague-Dawley
Parameters: regimen Single, gender Male, age 6 weeks
Conditions: in vivo, ip, 240 mg/kg, route intraperitoneal injection, dose level Middle; for APTT / Bas / Eos / Fbg / Hb / Ht / Lym / MCH / MCHC / MCV / Mono / Neu / PT / Plat / RBC / Ret / WBC: tissue Blood; for KIDNEY_L / KIDNEY_R / KIDNEY_TOTAL: tissue Kidney; for LIVER: tissue Liver; for A/G / ALP / ALT / AST / BUN / CRE / Ca / Cl / DBIL / GLC / IP / K / LDH / Na / PL / RALB / TBIL / TC / TG / TP / gamma-GTP: tissue Plasma

SMILES: CCOC(=O)/C=C\C(=O)OCC [DIETHYL MALEATE]
- TERMINAL_BW (3 h): 196.7 g
- APTT (3 h): 16 s
- Bas (3 h): 0%
- Eos (3 h): 1%
- Fbg (3 h): 206.2 mg/dL
- Hb (3 h): 13.4 g/dL
- Ht (3 h): 40.3%
- Lym (3 h): 72%
- MCH (3 h): 21.3 pg
- MCHC (3 h): 33.3%
- MCV (3 h): 63.8 fL
- Mono (3 h): 5.6%
- Neu (3 h): 21.6%
- PT (3 h): 12.4 s
- Plat (3 h): 124.8 x10_4/uL
- RBC (3 h): 631.8 x10_4/ul
- Ret (3 h): 9.7%
- WBC (3 h): 90.3 x10_2/uL
- KIDNEY_L (3 h): 0.9 g
- KIDNEY_R (3 h): 0.9 g
- KIDNEY_TOTAL (3 h): 1.8 g
- LIVER (3 h): 8.5 g
- A/G (3 h): 2.1
- ALP (3 h): 700.6 IU/L
- ALT (3 h): 35.8 IU/L
- AST (3 h): 80.6 IU/L
- BUN (3 h): 17 mg/dL
- CRE (3 h): 0.5 mg/dL
- Ca (3 h): 10.9 mg/dL
- Cl (3 h): 105.4 meq/L
- DBIL (3 h): 0.02 mg/dL
- GLC (3 h): 191.8 mg/dL
- IP (3 h): 10.9 mg/dL
- K (3 h): 5.2 meq/L
- LDH (3 h): 147 IU/L
- Na (3 h): 138.4 meq/L
- PL (3 h): 126 mg/dL
- RALB (3 h): 3.6 g/dL
- TBIL (3 h): 0.4 mg/dL
- TC (3 h): 71.8 mg/dL
- TG (3 h): 30.4 mg/dL
- TP (3 h): 5.3 g/dL
- gamma-GTP (3 h): 1.2 IU/L
- TERMINAL_BW (6 h): 199.7 g
- APTT (6 h): 16.1 s
- Bas (6 h): 0%
- Eos (6 h): 0.8%
- Fbg (6 h): 210.2 mg/dL
- Hb (6 h): 13 g/dL
- Ht (6 h): 38.9%
- Lym (6 h): 71.2%
- MCH (6 h): 22 pg
- MCHC (6 h): 33.3%
- MCV (6 h): 66 fL
- Mono (6 h): 6.8%
- Neu (6 h): 21.4%
- PT (6 h): 12.2 s
- Plat (6 h): 121.8 x10_4/uL
- RBC (6 h): 589.4 x10_4/ul
- Ret (6 h): 10.6%
- WBC (6 h): 107.7 x10_2/uL
- KIDNEY_L (6 h): 0.9 g
- KIDNEY_R (6 h): 0.9 g
- KIDNEY_TOTAL (6 h): 1.9 g
- LIVER (6 h): 8.6 g
- A/G (6 h): 1.9
- ALP (6 h): 729.6 IU/L
- ALT (6 h): 35 IU/L
- AST (6 h): 69.8 IU/L
- BUN (6 h): 14.8 mg/dL
- CRE (6 h): 0.5 mg/dL
- Ca (6 h): 10.7 mg/dL
- Cl (6 h): 106.6 meq/L
- DBIL (6 h): 0.004 mg/dL
- GLC (6 h): 192.6 mg/dL
- IP (6 h): 9.8 mg/dL
- K (6 h): 5 meq/L
- LDH (6 h): 112.8 IU/L
- Na (6 h): 139.2 meq/L
- PL (6 h): 131 mg/dL
- RALB (6 h): 3.5 g/dL
- TBIL (6 h): 0.4 mg/dL
- TC (6 h): 82.8 mg/dL
- TG (6 h): 39.6 mg/dL
- TP (6 h): 5.3 g/dL
- gamma-GTP (6 h): 1.4 IU/L
- TERMINAL_BW (9 h): 195.9 g
- APTT (9 h): 17 s
- Bas (9 h): 0%
- Eos (9 h): 1%
- Fbg (9 h): 209 mg/dL
- Hb (9 h): 13 g/dL
- Ht (9 h): 38.5%
- Lym (9 h): 74.8%
- MCH (9 h): 21.8 pg
- MCHC (9 h): 33.6%
- MCV (9 h): 64.7 fL
- Mono (9 h): 5.4%
- Neu (9 h): 19%
- PT (9 h): 12.2 s
- Plat (9 h): 115.5 x10_4/uL
- RBC (9 h): 595 x10_4/ul
- Ret (9 h): 9.6%
- WBC (9 h): 90.7 x10_2/uL
- KIDNEY_L (9 h): 0.9 g
- KIDNEY_R (9 h): 0.9 g
- KIDNEY_TOTAL (9 h): 1.7 g
- LIVER (9 h): 7.8 g
- A/G (9 h): 2.2
- ALP (9 h): 849.2 IU/L
- ALT (9 h): 34.6 IU/L
- AST (9 h): 71.8 IU/L
- BUN (9 h): 12.2 mg/dL
- CRE (9 h): 0.4 mg/dL
- Ca (9 h): 10.7 mg/dL
- Cl (9 h): 108.2 meq/L
- DBIL (9 h): 0.016 mg/dL
- GLC (9 h): 188.4 mg/dL
- IP (9 h): 9.7 mg/dL
- K (9 h): 4.7 meq/L
- LDH (9 h): 77.6 IU/L
- Na (9 h): 139.4 meq/L
- PL (9 h): 120.4 mg/dL
- RALB (9 h): 3.5 g/dL
- TBIL (9 h): 0.4 mg/dL
- TC (9 h): 67.6 mg/dL
- TG (9 h): 33.4 mg/dL
- TP (9 h): 5.2 g/dL
- gamma-GTP (9 h): 1.2 IU/L
- TERMINAL_BW (24 h): 210.6 g
- APTT (24 h): 15.9 s
- Bas (24 h): 0%
- Eos (24 h): 1%
- Fbg (24 h): 218.4 mg/dL
- Hb (24 h): 13.5 g/dL
- Ht (24 h): 40%
- Lym (24 h): 81.2%
- MCH (24 h): 21.9 pg
- MCHC (24 h): 33.6%
- MCV (24 h): 65 fL
- Mono (24 h): 4%
- Neu (24 h): 14%
- PT (24 h): 11.5 s
- Plat (24 h): 114.2 x10_4/uL
- RBC (24 h): 615.6 x10_4/ul
- Ret (24 h): 9.9%
- WBC (24 h): 113 x10_2/uL
- KIDNEY_L (24 h): 0.9 g
- KIDNEY_R (24 h): 0.9 g
- KIDNEY_TOTAL (24 h): 1.9 g
- LIVER (24 h): 10.2 g
- A/G (24 h): 2.3
- ALP (24 h): 871.4 IU/L
- ALT (24 h): 39.8 IU/L
- AST (24 h): 68.2 IU/L
- BUN (24 h): 17.6 mg/dL
- CRE (24 h): 0.5 mg/dL
- Ca (24 h): 10.8 mg/dL
- Cl (24 h): 106.2 meq/L
- DBIL (24 h): 0.02 mg/dL
- GLC (24 h): 198 mg/dL
- IP (24 h): 8.2 mg/dL
- K (24 h): 5.2 meq/L
- LDH (24 h): 125.2 IU/L
- Na (24 h): 139 meq/L
- PL (24 h): 145.4 mg/dL
- RALB (24 h): 3.8 g/dL
- TBIL (24 h): 0.4 mg/dL
- TC (24 h): 78 mg/dL
- TG (24 h): 99.2 mg/dL
- TP (24 h): 5.5 g/dL
- gamma-GTP (24 h): 1.8 IU/L
